Measurements: patent publication US6583334B1, “Ovariectomized mouse model for human menopause” (Board of Trustees operating Michigan State University, priority 2000, dated 2003)
Several values for one entry are separate records, joined by “and”; a condition that tells them apart may be missing. Equal values may be shown once. Entries after “also recorded” stand apart in the source; their conditions may differ. Read-outs that look alike come from different tables or passages of the source.

Experiments:
mammary gland = assay: Mammary gland wholemount morphology after E in OVX mice; assay type: in vivo, BALB/c female mice
Procedure: (§1) Ten-week-old or 9-12 month-old BALB/c female mice from our own colony were bilaterally ovariectomized (OVX) under Nembutal anesthesia 1 or 5 weeks prior to E treatment. […] Injection was chosen as the method of systemic administration to optimize precision and reproducibility of hormone dosage. Serum levels of E were determined after OVX and E injection by radioimmunoassay using a commercial kit (Diagnostic Products Corp., Los Angeles, Calif.) according to the suppliers instructions. […] Therefore, in all experiments except time course studies, mammary glands were analyzed at 72 h after E treatment for DNA histoautoradiogrpahy and at 96 h after E treatment for morphological analysis.

[1] = tested on: mammary epithelial and stromal cells; assay: DNA histoautoradiography (3H-thymidine labeling index) after E in OVX mice; assay type: in vivo, BALB/c female mice; settings: for maximum proliferative response, 5 wk vs 1 wk post OVX: dose response study
Procedure: Ten-week-old or 9-12 month-old BALB/c female mice from our own colony were bilaterally ovariectomized (OVX) under Nembutal anesthesia 1 or 5 weeks prior to E treatment. […] Injection was chosen as the method of systemic administration to optimize precision and reproducibility of hormone dosage.
At various times after E injection, animals received a single ip injection of [^3H]thymidine in a dosage of 2 μCi/g BW 1 h before sacrifice. The mammary glands were removed, fixed and processed as wholemounts followed by embedding and sectioning for histoautcradiographic analysis as described previously. Histological sections were examined at 400× magnification to determine the DNA labeling indices (LIs) of epithelial and stromal cells. […] In parallel, stromal cell LIs were determined for areas adjacent to and distal from duct ends. Adjacent areas were defined to be within […] of the duct end (i.e. in the same microscope field at 400× magnification) and the distal areas were defined to be more than 400 μm away from the duct end. A minimum of 10 individual structures were evaluated for each of 5-9 mice per experimental group.

[2] = Serum levels of E by radioimmunoassay; assay type: in vivo, BALB/c female mice; settings: female, BALB/c, mouse, 24 h after injection of 1 μg E at 5 wks post OVX, n=4, read-out: E serum level
Procedure: as §1

[3] = tested on: progesterone receptor (PR); assay: Steroid hormone binding assay ([3H]R5020) for PR concentration after E; assay type: in vivo, BALB/c female mice
Procedure: To determine PR concentration, cytoplasmic extracts were prepared separately for mammary gland and uteri as described previously (Haslam, S. Z., et al., Endocrinol 108:825-830 (1981)). Mammary gland and uterine cytoplasmic extracts were incubated with a single saturating concentration of 20 nM [^3H]R5020 with 100-fold excess radioinert dexamethasone (for suppression of progestin binding to glucocorticoid receptors) or with 100-fold excess radioinert R5020. Specific binding was determined using a dextran-coated charcoal assay procedure as previously described (Haslam, S. Z., et al., Endocrinol 108:825-830(1981)). Tissue DNA was quantitated as previously described (Ceriotti, G., J Biol Chem 198:297-303 (1952)).

PR = PR immunohistochemistry/immunofluorescence after E; assay type: in vivo, mice
Text: A dissociation between E stimulation of cell proliferation and PR regulation in mouse mammary gland has previously been reported (Fendrick, J. L., et al., J Mammary Gland Biol Neoplasia 3:7-22 (1998)). Although E appears to mediate proliferation of epithelial cells indirectly via stroma, E acts directly in epithelial cells to increase PR levels (Haslam, S. Z., Endocrinol 122:860-867 (1988)). Thus, our observations of increased responsiveness to the proliferative effect, but decreased responsiveness to the PR regulatory effect of E indicate that mammary epithelial and stromal cells are affected differently by long-term OVX. To confirm this observation, we have also used immunohistochemical analysis to determine the percentage of PR positive cells and PR concentration per cell, using a fluorescein-conjugated secondary antibody detection system, similar to the ER immunofluorescence assay herein. […] Future studies are planned to determine the mechanistic basis of these different responses to OVX. A similar dissociation of estrogenic regulation of proliferation and PR level has recently been reported for normal human breast (Clark, R. B., et al., Cancer Res 57:4987-4991 (1997)). […] In contrast, since ER and PR do co-localize in the same cells, E appears to act directly to regulate PR in breast epithelial cells. […]

[4] = tested on: progesterone receptor (PR); assay: PR ligand binding assay, time course of E induction of PR; assay type: in vivo, BALB/c virgin mice; settings: for increase in PR levels: single injection of E
Procedure: Hormone- or control-treated mammary glands were analyzed for progesterone receptor (PR) levels using a dextran-coated charcoal ligand binding assay (Haslam, S. G., Endocrinology 195:789-795 (1979)). Tissue DNA was quantitated as previously described (Ceriotti, G., J Biol Chem 198:297-303 (1952)).

[5] = tested on: MCF-7 human breast carcinoma cell line; settings: cited from earlier work
mammary gland duct ends = assay: Elvax implants of RU486 or ICI 182,780: duct end enlargement in E+P injected OVX mice; assay type: in vivo, BALB/c virgin mice; settings: for reduction of number of enlarged duct ends induced by E+P: implant vs control implant; for number of enlarged duct ends (mean ± S.E.M.) per implanted mammary gland: 3 days E + P
Procedure: Ten-week old BALB/c virgin mice from our own colony were bilaterally ovariectomized 1 or 5 weeks (wks) before hormone treatment. All mice received sc daily injections of 1 μg 17b-estradiol (E)+1 mg progesterone (P) as a suspension in 0.04% gum arabic in 0.85% NaCl; control groups received vehicle only. The E+P dosage was determined from previous studies on mouse mammary gland (Magnusson, C., et al., Int J Cancer 81:339-344 (1999); and Beral V., et al., Lancet 350:1047-1059 (1997)) on the basis that it produced modest sidebranching and alveolar bud development ([…]., Endocrinology 122:464-470 (1998)), and resembled the normal breast tissue of postmenopausal women who had received […]., et al., J Clin Endocrinol Metab 84:4559-4565 (1999)). […] The effects of the implants on the mammary gland were quantified morphometrically by capturing a digitized microscopic image of the mammary gland wholemount at 10× magnification using NIH/Image One software. The numbers and size of duct ends were measured within a 2 cm radius of the implant. Duct ends were considered to be enlarged if they were 1.0 mm or greater in diameter at the 10× magnification.

[6] = 24 hr after E injection, 5 wk post OVX

## C[C@]12CC[C@@H]3c4ccc(O)cc4CC[C@H]3[C@@H]1CC[C@@H]2O [E, 17β-estradiol]
Mammary gland; 5 wk post OVX, after E treatment (single ip 1 μg, 4 days later)
  percentage of mammary glands exhibiting stimulation of duct ends: 100%
Mammary gland; 9-12 month old mice, OVX 1, 3 or 5 weeks prior to E
  extent of stimulatory response to E as a function of time after ovariectomy: identical to that obtained in 10-week-old mice
Mammary gland; E treatment at 1 wk post OVX
  effect on mammary gland morphology: no effect on morphology
Mammary gland; E treatment at 5 wk post OVX (late postmenopausal)
  effect on mammary gland morphology: pronounced enlargement of duct ends; also recorded: produced enlarged duct ends
Mammary gland; mouse, in vivo
  time of maximal morphological response after E injection: 96 h
Mammary gland; ovariectomized plus adrenalectomized mice
  morphological and DNA synthesis results: identical to those obtained with ovariectomy alone
[1]; 1 μg E, 72 h
  stimulation of DNA synthesis in stromal cells adjacent to duct ends, 5 wk vs 1 wk post OVX: 4 fold
[1]; 1 vs 5 wk post OVX
  ED 50 of E-induced proliferation: identical
[1]; E-treated, 1 and 5 wk post OVX
  DNA synthesis in ducts: little or no DNA synthesis
[1]; after 3 days of daily sc E injection
  maximal epithelial proliferative response, 5 wk vs 1 wk post OVX: 2.6 fold
[1]; after long-term OVX (discussion)
  increased proliferative response in mammary stromal cells: 3 fold
[1]; duct end epithelium, 1 μg E, 72 h
  E-induced stimulation of DNA synthesis in duct ends, 5 wk vs 1 wk post OVX: 6.5 fold
[1]; epithelial cells, 72 h
  maximum proliferative response, 5 wk vs 1 wk post OVX: 5.6 fold
[1]; long-term daily E treatment
  steady state stromal cell proliferation, 5 wk vs 1 wk post OVX: 2 fold
[1]; long-term daily E treatment up to 28 days
  steady state epithelial proliferation, 5 wk vs 1 wk post OVX: 2 fold and 2.3 fold
[1]; mammary epithelial and stromal cells
  time of maximal DNA synthesis / proliferative response after E injection: 72 h
[1]; stromal cells, 72 h
  maximum proliferative response, 5 wk vs 1 wk post OVX: 2.5 fold
[2]
  concentration at 24 h: 0.031 ± 0.0078 ng/mL
[3]; 12, 24 and 36 h after E injection, 5 wk post OVX
  increase in PR in mammary gland: No increase
[3]; 24 hr after E injection, 1 wk post OVX
  increase in PR binding in mammary gland: 2.5 fold
[3]; [6]
  increase in PR binding in mammary gland: failed to increase; also recorded: no significant increase
  increase in PR in uteri: 8 fold
PR; 1 wk post OVX E-treated mammary glands
  increase in PR concentration per cell: 2 fold
PR; 5 wk post OVX E-treated glands
  numbers of PR positive cells or amount of PR per cell: no significant increase
[4]; 5 wk post OVX
  number of daily E injections until PR levels increased above control: 7 daily E injections
  increase in PR levels: failed to increase PR levels
[4]; 1 wk post OVX
  increase in PR levels: 2.5 fold and 2 fold
[5]; MCF-7 cells deprived of estrogen for 1-6 months
  dose for maximal proliferative response: 10^−14 M
[5]; MCF-7 cells, not estrogen-deprived
  dose for maximal proliferative response: 10^−10 M

## C[C@]12CC[C@@H]3c4ccc(O)cc4C[C@@H](CCCCCCCCC[S+]([O-])CCCC(F)(F)C(F)(F)F)[C@H]3[C@@H]1CC[C@@H]2O (stereo partly shown) [ICI 182,780]
Mammary gland duct ends; 5 wk post OVX
  reduction of number of enlarged duct ends induced by E+P: 8 fold
Mammary gland duct ends; late postmenopause (5 wk post OVX), 0.1 μg ICI 182,780 implant, n = 8
  number of enlarged duct ends (mean ± S.E.M.) per implanted mammary gland: 1.0 ± 1.0

## CC#C[C@]1(O)CC[C@H]2[C@@H]3CCC4=CC(=O)CCC4=C3[C@@H](c3ccc(N(C)C)cc3)C[C@@]21C [RU486]
Mammary gland duct ends; 1 wk post OVX
  reduction of number of enlarged duct ends induced by E+P: 9 fold
Mammary gland duct ends; early postmenopause (1 wk post OVX), 0.1 μg RU486 implant
  number of enlarged duct ends (mean ± S.E.M.) per implanted mammary gland: 0.75 ± 0.25
Mammary gland duct ends; late postmenopause (5 wk post OVX), 0.1 μg RU486 implant
  number of enlarged duct ends (mean ± S.E.M.) per implanted mammary gland: 9.0 ± 1.0
